Data from US20070048234A1, “COMPOSITIONS AND METHODS FOR TREATING ACNE” (REVANCE THERAPEUTICS, INC., priority 2005, published 2007).
Structures can show the parent of a compound that is named as a salt.

Legend:
[1] = system: propionibacterium acnes (P. Acnes); settings: compared with other medications on the market, prescription or otherwise; cited from earlier work
[2] = when topically applied; cited from earlier work
[3] = topical application; cited from earlier work
acne lesion = test: topical multi-step treatment of an acne lesion (vasoconstricting composition, then anti-acne agent); type: in vivo; settings: upon topical application of the vasoconstricting composition to the acne lesion
Text: (§1) This example provides a two step treatment for acne. The first step involves topically applying a vasoconstricting composition to the acne lesion to be treated. Suitable vasoconstricting compositions include tetrahydrozoline HCl 0.05%, naphazoline HCl 0.03%, or oxymetazoline HCl 0.025% in an aqueous base containing HPC to increase the viscosity for ease of application. Upon application of the vasoconstricting composition, the redness and swelling of the acne lesion diminishes, making the acne lesion less noticeable. After about 5 minutes, a second step is performed which involves topically applying 5% benzoyl peroxide 5% in an oil-in water moisturizer base. In this example, the benzoyl peroxide 5% is tinted to match the skin tone of the user, but this tinting is optional.
as §1, with “three-step nighttime” for “two step”, “peroxide” for “peroxide 5%”, “The acne lesion is then covered with a patch that includes silicone on” for “In this example,”, “skin-side” for “benzoyl peroxide 5% is tinted to match the skin tone”, “patch. The patch remains in place overnight and” for “user, but this tinting”, “removed in the morning.” for “optional.”
The following night, the three-step acne treatment is repeated.
This example provides a three-step acne treatment that is suitable for daytime use. The first step involves topically applying a vasoconstricting composition to the acne lesion to be treated. Suitable vasoconstricting compositions include tetrahydrozoline HCl 0.05%, naphazoline HCl 0.03%, or oxymetazoline HCl 0.025% in an aqueous base containing HPC to increase the viscosity for ease of application. […]

Row | Structure (SMILES) | kills propionibacterium acnes (P. Acnes) [1] | share of the population that experiences skin allergies [2] | flux into the skin [3] | redness and swelling of the acne lesion (acne lesion)
1 | O=C(OOC(=O)c1ccccc1)c1ccccc1 [benzoyl peroxide] | better than any other medication on the market | about 10% | high | 
2 | c1ccc2c(CC3=NCCN3)cccc2c1 [naphazoline HCl 0.03%, naphazoline HCl] |  |  |  | diminishes
3 | Cc1cc(C(C)(C)C)c(O)c(C)c1CC1=NCCN1 [oxymetazoline HCl 0.025%, oxymetazoline HCl] |  |  |  | diminishes
4 | c1ccc2c(c1)CCCC2C1=NCCN1 (stereo not drawn) [tetrahydrozoline HCl 0.05%, tetrahydrozoline HCl] |  |  |  | diminishes
